Columns and labels:
[1] = Inhibition of TOR signaling in wild-type Saccharomyces cerevisiae transformed with overexpression plasmids assessed as increased PDR17 gene expression by microarray
Saccharomyces cerevisiae [2] = assay: Increase of HMI1 gene expression in wild-type Saccharomyces cerevisiae transformed with overexpression plasmids by microarray; type: functional
Saccharomyces cerevisiae [3] = assay: Decrease of YJL051W gene expression in wild-type Saccharomyces cerevisiae transformed with overexpression plasmids by microarray; type: functional
[4] = Inhibition of TOR signaling in wild-type Saccharomyces cerevisiae transformed with overexpression plasmids assessed as decreased TPO4 gene expression by microarray
[5] = Inhibition of TOR signaling in wild-type Saccharomyces cerevisiae transformed with overexpression plasmids assessed as increased TIF2 gene expression by microarray
[6] = Inhibition of TOR signaling in wild-type Saccharomyces cerevisiae transformed with overexpression plasmids assessed as increased YFL030W gene expression by microarray
[7] = Inhibition of TOR signaling in wild-type Saccharomyces cerevisiae transformed with overexpression plasmids assessed as increased NEM1 gene expression by microarray
[8] = Inhibition of TOR signaling in wild-type Saccharomyces cerevisiae transformed with overexpression plasmids assessed as increased YOR220W gene expression by microarray
Saccharomyces cerevisiae [9] = assay: Decrease of SGN1 gene expression in wild-type Saccharomyces cerevisiae transformed with overexpression plasmids by microarray; type: functional
[10] = Inhibition of TOR signaling in wild-type Saccharomyces cerevisiae transformed with overexpression plasmids assessed as decreased YCL036W gene expression by microarray
[11] = Inhibition of TOR signaling in wild-type Saccharomyces cerevisiae transformed with overexpression plasmids assessed as decreased YNL058C gene expression by microarray
[12] = Inhibition of TOR signaling in wild-type Saccharomyces cerevisiae transformed with overexpression plasmids assessed as decreased MSB3 gene expression by microarray
[13] = Inhibition of TOR signaling in wild-type Saccharomyces cerevisiae transformed with overexpression plasmids assessed as decreased APM2 gene expression by microarray
[14] = Inhibition of TOR signaling in wild-type Saccharomyces cerevisiae transformed with overexpression plasmids assessed as increased YOL157C gene expression by microarray
[15] = Inhibition of TOR signaling in wild-type Saccharomyces cerevisiae transformed with overexpression plasmids assessed as decreased YBR284W gene expression by microarray
[16] = Inhibition of TOR signaling in wild-type Saccharomyces cerevisiae transformed with overexpression plasmids assessed as decreased YFL054C gene expression by microarray
Saccharomyces cerevisiae [17] = assay: Increase of YDR514C gene expression in wild-type Saccharomyces cerevisiae transformed with overexpression plasmids by microarray; type: functional
[18] = Inhibition of TOR signaling in wild-type Saccharomyces cerevisiae transformed with overexpression plasmids assessed as decreased ERO1 gene expression by microarray
[19] = Inhibition of TOR signaling in wild-type Saccharomyces cerevisiae transformed with overexpression plasmids assessed as increased YFR044C gene expression by microarray
[20] = Inhibition of TOR signaling in wild-type Saccharomyces cerevisiae transformed with overexpression plasmids assessed as increased BRE1 gene expression by microarray
[21] = Inhibition of TOR signaling in wild-type Saccharomyces cerevisiae transformed with overexpression plasmids assessed as increased YPR153W gene expression by microarray
Saccharomyces cerevisiae [22] = assay: Decrease of YDR222W gene expression in wild-type Saccharomyces cerevisiae transformed with overexpression plasmids by microarray; type: functional
[23] = Inhibition of TOR signaling in wild-type Saccharomyces cerevisiae transformed with overexpression plasmids assessed as decreased BUD8 gene expression by microarray
[24] = Inhibition of TOR signaling in wild-type Saccharomyces cerevisiae transformed with overexpression plasmids assessed as increased WRS1 gene expression by microarray
[25] = Inhibition of TOR signaling in wild-type Saccharomyces cerevisiae transformed with overexpression plasmids assessed as increased PDR3 gene expression by microarray
[26] = Inhibition of TOR signaling in wild-type Saccharomyces cerevisiae transformed with overexpression plasmids assessed as increased APN2 gene expression by microarray
[27] = Inhibition of TOR signaling in wild-type Saccharomyces cerevisiae transformed with overexpression plasmids assessed as decreased YNL305C gene expression by microarray
[28] = Inhibition of TOR signaling in wild-type Saccharomyces cerevisiae transformed with overexpression plasmids assessed as increased YDL025C gene expression by microarray
[29] = Inhibition of TOR signaling in wild-type Saccharomyces cerevisiae transformed with overexpression plasmids assessed as decreased PEX7 gene expression by microarray
[30] = Inhibition of TOR signaling in wild-type Saccharomyces cerevisiae transformed with overexpression plasmids assessed as increased SEC14 gene expression by microarray
Saccharomyces cerevisiae [31] = assay: Increase of GUF1 gene expression in wild-type Saccharomyces cerevisiae transformed with overexpression plasmids by microarray; type: functional
[32] = Inhibition of TOR signaling in wild-type Saccharomyces cerevisiae transformed with overexpression plasmids assessed as decreased YPL260W gene expression by microarray
[33] = Inhibition of TOR signaling in wild-type Saccharomyces cerevisiae transformed with overexpression plasmids assessed as increased SAS10 gene expression by microarray
Saccharomyces cerevisiae [34] = assay: Decrease of FET4 gene expression in wild-type Saccharomyces cerevisiae transformed with overexpression plasmids by microarray; type: functional
[35] = Inhibition of TOR signaling in wild-type Saccharomyces cerevisiae transformed with overexpression plasmids assessed as decreased SHO1 gene expression by microarray
[36] = Inhibition of TOR signaling in wild-type Saccharomyces cerevisiae transformed with overexpression plasmids assessed as decreased VTI1 gene expression by microarray
[37] = Inhibition of TOR signaling in wild-type Saccharomyces cerevisiae transformed with overexpression plasmids assessed as increased PZF1 gene expression by microarray
[38] = Inhibition of TOR signaling in wild-type Saccharomyces cerevisiae transformed with overexpression plasmids assessed as decreased SET4 gene expression by microarray
[39] = Inhibition of TOR signaling in wild-type Saccharomyces cerevisiae transformed with overexpression plasmids assessed as decreased NRG1 gene expression by microarray
[40] = Inhibition of TOR signaling in wild-type Saccharomyces cerevisiae transformed with overexpression plasmids assessed as decreased APL4 gene expression by microarray
[41] = Inhibition of TOR signaling in wild-type Saccharomyces cerevisiae transformed with overexpression plasmids assessed as decreased HMI1 gene expression by microarray
[42] = Inhibition of TOR signaling in wild-type Saccharomyces cerevisiae transformed with overexpression plasmids assessed as increased FBP1 gene expression by microarray
[43] = Inhibition of TOR signaling in wild-type Saccharomyces cerevisiae transformed with overexpression plasmids assessed as decreased PRM6 gene expression by microarray
[44] = Inhibition of TOR signaling in wild-type Saccharomyces cerevisiae transformed with overexpression plasmids assessed as decreased YPT11 gene expression by microarray
[45] = Inhibition of TOR signaling in wild-type Saccharomyces cerevisiae transformed with overexpression plasmids assessed as decreased FRE5 gene expression by microarray

CO[C@H]1C[C@@H]2CC[C@@H](C)[C@@](O)(O2)C(=O)C(=O)N2CCCC[C@H]2C(=O)O[C@H]([C@H](C)C[C@@H]2CC[C@@H](O)[C@H](OC)C2)CC(=O)[C@H](C)/C=C(\C)[C@@H](O)[C@@H](OC)C(=O)[C@H](C)C[C@H](C)/C=C/C=C/C=C/1C [SIROLIMUS]
fold change (FC) [1]: 2.9 | fold change (FC) (Saccharomyces cerevisiae [2]): -2.3 | fold change (FC) (Saccharomyces cerevisiae [3]): -2.5 | fold change (FC) [4]: -5.8 | fold change (FC) [5]: 2.6 | fold change (FC) [6]: 3.2 | fold change (FC) [7]: 2.2 | fold change (FC) [8]: 3.2 | fold change (FC) (Saccharomyces cerevisiae [9]): -2.1 | fold change (FC) [10]: -2.1 | fold change (FC) [11]: -2.1 | fold change (FC) [12]: -2 | fold change (FC) [13]: -2.4 | fold change (FC) [14]: 7.1 | fold change (FC) [15]: -3.2 | fold change (FC) [16]: -2.5 | fold change (FC) (Saccharomyces cerevisiae [17]): -3.1 | fold change (FC) [18]: -2.3 | fold change (FC) [19]: 4.7 | fold change (FC) [20]: 4.4 | fold change (FC) [21]: 2.1 | fold change (FC) (Saccharomyces cerevisiae [22]): 5 | fold change (FC) [23]: -6.4 | fold change (FC) [24]: 2.8 | fold change (FC) [25]: 14.4 | fold change (FC) [26]: 2.1 | fold change (FC) [27]: -2.5 | fold change (FC) [28]: 2.5 | fold change (FC) [29]: -2.8 | fold change (FC) [30]: 4.1 | fold change (FC) (Saccharomyces cerevisiae [31]): -3.1 | fold change (FC) [32]: -2 | fold change (FC) [33]: 2.3 | fold change (FC) (Saccharomyces cerevisiae [34]): -5.1 | fold change (FC) [35]: -4.4 | fold change (FC) [36]: -2.8 | fold change (FC) [37]: 2.1 | fold change (FC) [38]: -2.2 | fold change (FC) [39]: -2.3 | fold change (FC) [40]: -2.7 | fold change (FC) [41]: -2.3 | fold change (FC) [42]: 2.1 | fold change (FC) [43]: -4.4 | fold change (FC) [44]: -3.1 | fold change (FC) [45]: -8.1
